Patent publication US20210259251A1, “[…] PREVENT AND CONTROL FUNGAL PATHOGENS” (priority 2018, published 2021)
“Also recorded” adds a separate entry of the source. Read-outs that look alike come from different tables or passages of the source.

What was measured:
[1] = test system: Hemenoscyphus fraxineus; test: In vitro antifungal assay (mycelial growth on PDA); details: read-out: ED50
[2] = test system: Colletotrichum dematium; test: In vitro antifungal assay (mycelial growth on PDA); details: read-out: ED50
[3] = test system: Serpula lacrymans; test: In vitro antifungal assay (mycelial growth on PDA); details: read-out: ED50
[4] = test system: Septoria tritici; test: In vitro antifungal assay (mycelial growth on PDA); details: Zymoseptoria tritici, read-out: ED50
[5] = test system: Fusarium oxysporum; test: In vitro fungal bioassay, fungitoxic activity; details: maximal concentration 1500 μM; for fungitoxic activity against Fusarium oxysporum (in words): in vitro; for ED95 F. oxysporum: Table 2, effect in 95% of the population
[6] = test system: Botrytis cinerea; test: In vitro fungal bioassay, fungitoxic activity; details: for fungitoxic activity against Botrytis cinerea (in words): in vitro, dose range between 10 and 1500 μM; for ED95 Botrytis cinerea: effect in 95% of the population, maximal concentration 1500 μM
[7] = test system: Plectosphaerella cucumerina; test: Fungitoxic activity of combined isothiocyanates, 48 well plates, synergy (CompuSyn)
Description: (§1) Applicants examined fungitoxic activities of combined isothiocyanates in three necrotrophic fungal species, i.e. Alternaria radicina (class: Dothideomycetes; order: Pleosporales; host: carrot), Fusarium gramineum (class: Sordariomycetes; order: Hypocreales; host: cereals) and Plectosphaerella cucumerina (class: Sordariomycetes; order: Glomerellales; host: tomato and cucurbits).
(§2) Fungitoxic activities were tested in 48 well tissue culture plates. […] Synergistic fungitoxic activities was then estimated as in Chou (2006), and the CompuSyn software (www.combosyn.com) was used to determine the Combination Index (CI) for combinations of two molecules and the presence of synergism (CI<1).

[8] = test system: Alternaria radicina; test: as above
Description: as §1, §2

[9] = test system: Fusarium gramineum; test: as above
Description: as §1, §2

[10] = test system: Fusarium gramineum; test: microbe, parasite or virus in culture; assay type: cell-based; details: for EC50: read-out: ED50 F. gramineum
[11] = test system: Phytophthora cactorum; test: microbe, parasite or virus in culture; assay type: cell-based
[12] = test system: Phytophthora infestans; test: microbe, parasite or virus in culture; assay type: cell-based; details: read-out: ED50 P. infestans
[13] = test system: Guignardia bidwellii; test: In vitro fungal bioassay, fungitoxic activity; assay type: cell-based; details: Phyllosticta ampelicida; Table 5; unit from the concentration series of the method; read-out: ED50 G. bidwellii
[14] = 168 h, read-out: EC50 Molecule 2
[15] = Table 3, maximal dosage 1500 μM
[16] = 168 h, read-out: EC50 Molecule 2, Alternaria radicina, second molecule alone, range 10-850 μM, 850 = no fungitoxic activity in the tested range
[17] = read-out: EC50 Molecule 1, Alternaria radicina, first molecule alone, range 10-850 μM, 850 = no fungitoxic activity in the tested range
[18] = 168 h, read-out: EC50 Molecule 1
[19] = Fusarium, Table 5, unit from the concentration series of the method

In the case of CS(=O)(=O)CCCCCCCN=C=S [7-methylsulfonyl-heptyl isothiocyanate], the EC50 [1] is reported as 770 µM, the EC50 [2] is reported as 650 µM and the EC50 [3] is reported as 150 µM. The EC50 [4] was 350 µM, the “fungitoxic activity against Fusarium oxysporum (in words)” value [5] was “non-active” and the “fungitoxic activity against Botrytis cinerea (in words)” value [6] was “no fungitoxic activity; also recorded: non-active”.
With C[S+]([O-])CCCN=C=S (centres unmarked) [Molecule 3MSOH, 1-Isothiocyanato-3-(methylsulfinyl)-propane] the EC50 [7, 14] was 627 µM, the EC50 [8, 14] was 786 µM and the EC50 [9, 14] was 525 µM. For the same compound, the EC50 ([9]; read-out: EC50 Molecule 2) was 525 µM.
CS(=O)(=O)CCCN=C=S [Molecule 3MSOOH, 1-Isothiocyanato-3-(methylsulfonyl)-propane] gave an EC50 [7, 14] of 536 µM, an EC50 [8, 14] of 469 µM and an EC50 [9, 14] of 387 µM. For the same compound, the EC50 ([9]; read-out: EC50 Molecule 2) was 387 µM.
For C[S+]([O-])CCCCN=C=S (centres unmarked) [Molecule 4MSOH, 1-Isothiocyanato-4-(methylsulfinyl)-butane], the EC50 ([10]; Fusarium) was 628 µM and the “ED50 P. cactorum” value [11] was <1500 µM.
With C[S+]([O-])CCCCCN=C=S (centres unmarked) [Molecule 5MSOH, 1-isothiocyanato-5-(methylsulfinyl)-pentane] the “ED95 Botrytis cinerea” value ([6]; Table 4) was <1500 µM and the “fungitoxic activity against Botrytis cinerea (in words)” value [6] was “none of these single compounds revealed fungitoxic effect”.
For CS(=O)(=O)CCCCCN=C=S [Molecule 5MSOOH, 1-Isothiocyanato-5-(methylsulfonyl)-pentane], the “ED95 Botrytis cinerea” value ([6]; Table 4) was <1500 µM and the “fungitoxic activity against Botrytis cinerea (in words)” value [6] was “none of these single compounds revealed fungitoxic effect”.
For CS(=O)(=O)CCCCCCN=C=S [Molecule 6MSOOH, 1-Isothiocyanato-6-(methylsulfonyl)-hexane], the EC50 [10, 15] was <1500 µM, the “fungistatic effect on Fusarium gramineum (in words)” value ([10]; in the dosage of 1500 μM) was “not fungistatic” and the “ED50 P. cactorum” value [11, 15] was <1500 µM.
In the case of C[S+]([O-])CCCCCCCN=C=S (centres unmarked) [Molecule 7MSOH, 1-Isothiocyanato-7-(methylsulfinyl)-heptane], the EC50 [7, 14] is reported as 337 µM, the EC50 [8, 16] is reported as 537 µM and the EC50 [9, 14] is reported as 586 µM. The EC50 ([9]; read-out: EC50 Molecule 2) was 586 µM.
C[S+]([O-])CCCCc1cccc(CN=C=S)c1 (centres unmarked) [Molecule 8ASOH, 1-(isothiocyanatomethyl)-3-(4-(methylsulfinyl)butyl)benzene] showed an EC50 [8, 17] of 723 µM.
For CS(=O)(=O)CCCCc1cccc(CN=C=S)c1 [Molecule 8ASOOH, 1-(isothiocyanatomethyl)-3-(4-(methylsulfonyl)butyl)benzene], the EC50 [8, 16] was > 850 µM.
In the case of C[S+]([O-])CCCCC/C=C/CN=C=S (centres unmarked) [Molecule 8CSOH, (E)-1-isothiocyanato-8-(methylsulfinyl)oct-2-ene], the EC50 ([7]; read-out: EC50 Molecule 1) is reported as 273 µM, the EC50 [8, 17] is reported as 472 µM and the EC50 ([8]; read-out: EC50 Molecule 1, first molecule alone, range 10-850 μM, 850 = no fungitoxic activity in the tested range) is reported as 704 µM. For the same compound, the EC50 [9, 18] was > 850 µM and the EC50 ([9]; read-out: EC50 Molecule 1) was > 850 µM.
CC[S+]([O-])CCCCCCCCN=C=S (centres unmarked) [Molecule 8ESOH, 1-(ethylsulfinyl)-8-isothiocyanatooctane] was tested, and the EC50 [8, 16] was 472 µM, the EC50 [9, 18] was 533 µM and the EC50 ([9]; read-out: EC50 Molecule 1) was 533 µM.
In the case of CCS(=O)(=O)CCCCCCCCN=C=S [Molecule 8ESOOH, 1-(ethylsulfonyl)-8-isothiocyanatooctane], the EC50 [8, 16] is reported as > 850 µM.
C[S+]([O-])CCCCCCCCN=C=S (centres unmarked) [Molecule 8MSOH, 1-Isothiocyanato-8-(methylsulfinyl)-octane] showed an EC50 [12] of 26.4 µM, an EC50 [13] of 30.4 µM and an EC50 [10, 19] of 292 µM. The “ED95 F. oxysporum” value [5] was <1500 µM, the “fungitoxic activity against Fusarium oxysporum (in words)” value [5] was “no fungitoxic effect” and the EC50 [9, 18] was 317 µM. The EC50 [9, 14] was 317 µM, the EC50 ([9]; read-out: EC50 Molecule 1) was 317 µM and the “ED95 Botrytis cinerea” value ([6]; Table 2) was <1500 µM. The “ED95 Botrytis cinerea” value ([6]; Table 4) was <1500 µM and the “fungitoxic activity against Botrytis cinerea (in words)” value [6] was “no fungitoxic effect; also recorded: none of these single compounds revealed fungitoxic effect”.
In the case of CS(=O)(=O)CCCCCCCCN=C=S [Molecule 8MSOOH, 1-Isothiocyanato-8-(methylsulfonyl)-octane], the EC50 ([7]; read-out: EC50 Molecule 1) is reported as > 850 µM, the EC50 [12] is reported as 350 µM and the EC50 [13] is reported as 464 µM. It also gave an EC50 ([10]; Fusarium, Table 3, maximal dosage 1500 μM) of 464 µM, an EC50 [10, 19] of 22.2 µM and an EC50 ([11]; Phytophthora cactorum, read-out: ED50 P. cactorum) of 628 µM. The “ED95 F. oxysporum” value [5] was <1500 µM, the “fungitoxic activity against Fusarium oxysporum (in words)” value [5] was “no fungitoxic effect” and the EC50 [9, 18] was > 850 µM. For the same compound, the “ED95 Botrytis cinerea” value ([6]; Table 2) was <1500 µM, the “ED95 Botrytis cinerea” value ([6]; Table 4) was <1500 µM and the “fungitoxic activity against Botrytis cinerea (in words)” value [6] was “no fungitoxic effect; also recorded: none of these single compounds revealed fungitoxic effect”.
In the case of CS(=O)(=O)CCCCCCCCC#N [Molecule 8MSOON, 8-(methylsulfonyl)octylnitrile], the “ED95 F. oxysporum” value [5] is reported as <1500 µM and the “ED95 Botrytis cinerea” value ([6]; Table 2) is reported as <1500 µM.
Compound C[S+]([O-])CCCCCCCCCN=C=S (centres unmarked) [Molecule 9MSOH, 1-Isothiocyanato-9-(methylsulfinyl)-nonane] has an EC50 [9, 14] of 553 µM.
CS(=O)(=O)CCCCCCCCCN=C=S [Molecule 9MSOOH, 1-Isothiocyanato-9-(methylsulfonyl)-nonane] was tested, and the EC50 [9, 14] was > 850 µM.
